Reference: patent US20230305016A1, “TEST KIT AND METHOD OF DETERMINING TRYPTOPHAN IN EXTRACTS OF FAECAL SAMPLES” (IMMUNDIAGNOSTIK AG, priority 2020, published 2023)
Like-named read-outs stand apart in the source and are kept apart here.

How the values were obtained:
depression = conditions: cited from earlier work; for side effects: adults; for effective in alleviating depression in adults: versus placebo
GLUT5 = conditions: mice; duodenum and adipose tissue; cited from earlier work
[1] = parameters: key to Oxidation into 14CO2: x: Detected but not quantified; xx: Detected but not quantified; conditions: rats, cited from earlier work
[2] = carboxyl group; cited from earlier work
[3] = rat, in vivo; cited from earlier work
[4] = Alkaline hydrolyzation of spiked fructose-tryptophan Amadori product in stool extract; format: physicochemical; conditions: 10 M NaOH, 100° C., 20 min
Description: 5 mg fructose-tryptophan Amadori product (MW=366.37 Da) was dissolved in 2.27 ml aqua dest. (6 mM/L). The concentration of peptide groups in this solution was determined to be 4.36 mM/L using a BCA test (Smith P K et al, Measurement of protein using bicinchoninic acid, in: Analytical Biochemistry […], 150(1):76-85, doi:10.1016/0003-2697(85)90442-7). This concentration was taken in the spiking experiments. The IDK® Amino Extract (dilution 1:50) was spiked with fructose-tryptophan Amadori product (not the raw stool) to achieve a target concentration the spiked fecal extract of 6 μM Amadori adduct/L. This corresponds to a spiking of 300 μM fructose-tryptophan Amadori product per gram stool as the stool was diluted 1:50 in the extract.
The spiking and hydrolyzation was carried out as follows: 70 μl stool extract were spiked with 10 μl 60 μM/L fructose-tryptophan Amadori product (as determined by BCA) and 10 μl 10 M NaOH. This solution was incubated at 100° C. for 20 min. to achieve hydrolyzation of all adducts and centrifuged at 550 rpm for removal of any precipitate. Finally, 10 μl 10 M HCl was added to neutralize (dilution 1:10) the solution prior measurement of tryptophan. In case of a spiking with fructose or tryptophan, the spiking solution contained 60 μM/L fructose and/or tryptophan each.

[5] = % of the ingested/injected material

For N[C@@H](Cc1c[nH]c2ccc(O)cc12)C(=O)O [5-HTP, 5-hydroxytryptophan], the side effects (depression) is listed as “may have serious side effects” and the “effective in alleviating depression in adults” value (depression) is listed as “better than placebo”.

In the case of O=S(=O)(c1ccccc1)N(CC(F)(F)F)c1ccc(C(O)(C(F)(F)F)C(F)(F)F)cc1 [T0901317], the “GLUT5 mRNA” value (GLUT5) is listed as “increase” and the GLUT5 protein levels (GLUT5) is listed as “increased”.

For N[C@@H](Cc1c[nH]c2ccccc12)C(=O)O [^14C-Tryptophan], the Retention in liver [1, 5] is given as 0.7%, the urinary excretion [1, 5] is given as 60% and the “Oxidation into 14CO2” value ([1]; detected but not quantified) is given as “xx^b”. For the same compound, the urinary excretion ([1]; summary of Table 1) was roughly 60%.

In the case of N[C@@H](Cc1c[nH]c2ccccc12)C(=O)O [tryptophan], the side effects (depression) is listed as “may have serious side effects”, the “effective in alleviating depression in adults” value (depression) is listed as “better than placebo” and the pKa [2] is listed as 2,38.

In the case of NC(CCCCNCC(=O)C(O)C(O)C(O)CO)C(=O)O (stereo not shown) [ε-Lysine], the “absorption in the intestine” value [3] is listed as “NOT absorbed in the intestine”.

With “D-fructose-L-tryptophan [fructose-tryptophan Amadori product]” the “hydrolyzation of added adduct” value [4] was “hydrolyzed”.
